Source: US5304474A, “Hydrophobic peptide esters and amides” (Board of Regents, The University of Texas System, priority 1991, dated 1994)
Like-named read-outs stand apart in the source and are kept apart here.

What was measured:
[1] = target: dipeptidyl peptidase I (DPPI) (Bos taurus, UniProt Q3ZCJ8); experiment: Dipeptidyl peptidase I catalyzed lysis of human RBC; type: cell-based, bovine; conditions: FIG. 12, FIG. 13
Description: The following experiments were carried out to determine whether DPPI could generate a lytic product from Leu-Leu-OMe. In the experiment detailed in FIG. 12, ^51 Cr-labeled human erythrocytes (RBC) were incubated with varying concentrations of Leu-Leu-OMe alone or in the presence of purified bovine DPPI.
In the experiments detailed in FIG. 13, ^51 Cr-labeled RBC's were exposed to various dipeptide esters or amides in the presence or absence of purified DPPI. […] The first observation is probably related to the inability of this enzyme to catalyze transpeptidation of peptide esters containing D-stereoisomers of amino acids. The latter observations are likely to be related to the fact that polymers of Ser-Leu or Leu-Tyr are not hydrophobic and therefore unlikely to enter and disrupt cell membranes.

[2] = tested on: [^3 H]Leu-Leu-OMe uptake by PBL (facilitated transport); experiment: Competitive inhibition of [3H]Leu-Leu-OMe uptake; type: cell-based, human; conditions: for inhibition at 250 µM: Homo sapiens, unlabeled compound 250 microM, [3H]Leu-Leu-OMe 10 microM (Table 5)
Description: Human peripheral blood lymphocytes (PBL) were incubated in the presence of [^3 H]labeled Leu-Leu-OMe at 22° C. for varying lengths of time. The incubation mixture was then centrifuged through silicone oil to separate the cells from any unbound or non-internalized [^3 HLeu-Leu-OMe. […] At 37° C., levels of [^3 H]Leu-Leu-OMe accumulation by PBL were increased above those seen at 22° C. (see Table 4).

[3] = tested on: natural killer cells (NK); experiment: NK function: lysis of K562 target cells (51Cr release) after preincubation of lymphocytes with compound; conditions: for NK toxicity / effect on NK function, in words: lymphocytes exposed 15 minutes at room temperature (FIG. 4, FIG. 5)
Description: PBM were separated from heparinized venous blood of healthy donors by centrifugation over sodium diatrizoate-Ficoll gradients (Isolymph, Gallard-Schlesinger Chemical Mfg. Corp., Carle Place, N.Y.).
All cell exposures to the amino acids, dipeptides or their methyl esters were carried out by suspending cells in Dulbecco's phosphate buffered saline (PBS) and incubating them at room temperature with the reagent at the indicated concentration and time interval.
Percent of control cytotoxicity was calculated using the formula: [formula]

[4] = tested on: production of a TCA insoluble product from [^3 H]Leu-Leu-OMe; type: cell-based, human
From the text: Iodoacetamide nonspecifically binds covalently to free sulfhydryl groups and thereby inhibits thiol protease function as well as other enzymatic reactions dependent on the presence of reduced sulfhydryl groups.

Sequence of dipeptidyl peptidase I (DPPI) (Q3ZCJ8 231-394 limits assumed): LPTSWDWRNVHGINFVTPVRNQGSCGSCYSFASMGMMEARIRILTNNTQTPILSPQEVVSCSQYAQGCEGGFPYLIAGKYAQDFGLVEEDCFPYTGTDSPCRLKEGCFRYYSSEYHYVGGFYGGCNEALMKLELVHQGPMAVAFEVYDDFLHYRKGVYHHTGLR
Sequence of dipeptidyl peptidase I (DPPI) (Q3ZCJ8 25-134 limits assumed): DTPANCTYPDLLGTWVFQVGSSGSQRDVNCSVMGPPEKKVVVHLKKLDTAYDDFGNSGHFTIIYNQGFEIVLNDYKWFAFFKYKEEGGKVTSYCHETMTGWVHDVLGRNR
Sequence of dipeptidyl peptidase I (DPPI) (Q3ZCJ8 395-463 limits assumed): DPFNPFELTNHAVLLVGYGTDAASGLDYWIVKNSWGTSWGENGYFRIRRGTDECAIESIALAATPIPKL

Row | Compound | RBC lysis in the presence of purified DPPI, in words [1] | competitive inhibition of [3H]Leu-Leu-OMe uptake, in words [2] | inhibition at 250 µM [2] [%] | effect on Leu-Leu-OMe mediated NK toxicity ([3]; added with Leu-Leu-OMe) | NK toxicity / effect on NK function, in words [3] | [^3 H]Leu--Leu--OMe Incorporation, 10% TCA Precipitate [4] | [^3 H]Leu--Leu--OMe Incorporation, Initial [4] | [^3 H]Leu--Leu--OMe Incorporation, 10% TCA Precipitate ([4]; Expt. 1, Cycloheximide 100 micro-g/ml, PMSF 1 micro-M, Iodoacetamide 0.5 micro-M, Nil 2,160 + 193) | NK activity ([3]; PBM, 5 mM (FIG. 1))
1 | COC(=O)[C@@H](CC(C)C)NC(=O)[C@H](N)CC(C)C [D-Leu-D-Leu-OMe] | unable to produce a membrane active metabolite | do not competitively inhibit PBL uptake of L-Leu-L-Leu-OMe | 7 | had no effect on Leu-Leu-OMe mediated NK toxicity | had no inhibitory effect | – | – | – | –
2 | NC(=O)CI [Iodoacetamide, iodoacetamide] | – | – | – | – | – | 243 + 16 cpm | 6,316 + 188 cpm | 140 + 5 cpm | –
3 | CC(C)C[C@H](NC(=O)[C@@H](N)CC(C)C)C(=O)O [Leu-Leu, L-leucyl L-leucine, reference compound] | not polymerized by DPPI to form a product capable of lysing RBC's | competitively inhibited | 44 | – | had no inhibitory effect | – | – | – | –
4 | COC(=O)[C@@H](N)CC(C)C [Leu-OMe, L-leucine methyl ester, reference compound] | not polymerized by DPPI to form a product capable of lysing RBC's | do not competitively inhibit PBL uptake of L-Leu-L-Leu-OMe | -10 | – | had no irreversible effect on NK function | – | – | – | ablated all NK activity
